In patent US6914045B2, “Glycopeptide antibiotics” (Wyeth Holdings Corporation, priority 2001, dated 2005):
Converted amounts (≈) assume the structure as drawn.

How the values were obtained:
Experiment in all cases: in vitro antibacterial evaluation, MIC by broth dilution
Assay type in all cases: cell-based
[1] = tested on: Staphylococcus sp.; details: broth dilution, 18 hours at 35° C.; for MIC Staphylococcus aureus (GC 1131): strain GC 1131
Outline: (§1)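 Step 1: dilute antibiotic across 64-0.06 μg/mL in Muller-Hinton II […]. Step 2: inoculate at 5×10^5 CFU/mL.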

[2] = tested on: Escherichia coli
Outline: as §1

[3] = tested on: Streptococcus sp.; details: broth dilution, 18 hours at 35° C.
Outline: as §1

[4] = tested on: Enterococcus sp.; details: broth dilution, 18 hours at 35° C.
Outline: as §1

SMILES: CCCc1ccc(C2OCC3OC(OC4C(CO)OC(Oc5ccc(CC6NC(=O)C(C(C)c7ccccc7)NC(=O)CNC(=O)C(CO)NC(=O)C(C(O)C7CNC(=N)N7C7OC(CO)C(O)C(O)C7O)NC(=O)C(C(O)C7CNC(=N)N7)NC6=O)cc5)C(O)C4O)C(O)C(O)C3O2)cc1 (stereo not drawn) [Example 140, Cyclo[glycyl-β-methylphenylalanyl-O-[4-O-[4,6-O-(4-propylbenzylidene)hexopyranosyl]-hexopyranosyl]tyrosyl-3-(2-iminoimidazolidin-4-yl)seryl-3-(3-hexopyranosyl-2-iminoimidazolidin-4-yl)serylseryl]]
- MIC Staphylococcus aureus (GC 1131) ([1]; inoculum 5×10^5 CFU/mL): 1 µg/mL (≈ 0.702 µM)
- MIC Staphylococcus aureus (ATCC 29213) ([1]; strain ATCC 29213): 1 µg/mL (≈ 0.702 µM)
- MIC Staphylococcus aureus (GC 1131) [1]: 1 µg/mL (≈ 0.702 µM)
- MIC Staphylococcus aureus (GC 3051) ([1]; strain GC 3051): 1 µg/mL (≈ 0.702 µM)
- MIC Staphylococcus aureus (GC 3053) ([1]; strain GC 3053): <0.5 µg/mL
- MIC Staphylococcus aureus (GC 4541) ([1]; strain GC 4541): 1 µg/mL (≈ 0.702 µM)
- MIC Staphylococcus aureus (GC 4542) ([1]; strain GC 4542): 1 µg/mL (≈ 0.702 µM)
- MIC Staphylococcus aureus-SMITH (GC 4543) ([1]; strain GC 4543): 1 µg/mL (≈ 0.702 µM)
- MIC Staphylococcus aureus (GC 4544) ([1]; strain GC 4544): 1 µg/mL (≈ 0.702 µM)
- MIC Staphylococcus aureus (GC 4545) ([1]; strain GC 4545): <0.5 µg/mL
- MIC Staphylococcus haemolyticus (GC 4546) ([1]; strain GC 4546): 1 µg/mL (≈ 0.702 µM)
- MIC Coagulase Negative Staphylococcus (GC 4547) ([1]; strain GC 4547): <0.5 µg/mL
- MIC Coagulase Negative Staphylococcus (GC 4548) ([1]; strain GC 4548): <0.5 µg/mL
- MIC Coagulase Negative Staphylococcus (GC 4549) ([1]; strain GC 4549): <0.5 µg/mL
- MIC Coagulase Negative Staphylococcus (GC 4551) ([1]; strain GC 4551): <0.5 µg/mL
- MIC Coagulase Negative Staphylococcus (GC 6257) ([1]; strain GC 6257): <0.5 µg/mL
- MIC Staphylococcus aureus-SMITH (GC 4543) ([1]; strain SMITH GC 4543): 1 µg/mL (≈ 0.702 µM)
- MIC Escherichia coli (ATCC 25922) ([2]; strain ATCC 25922, 18 hours at 35° C.): 64 µg/mL (≈ 44.9 µM)
- MIC Escherichia coli (GC 4559) ([2]; strain GC 4559, 18 hours at 35° C.): 64 µg/mL (≈ 44.9 µM)
- MIC Escherichia coli (GC 4560) ([2]; strain GC 4560, 18 hours at 35° C.): 1 µg/mL (≈ 0.702 µM)
- MIC Streptococcus agalactiae (GC 4564) ([3]; Streptococcus agalactiae (GC 4564)): <0.5 µg/mL
- MIC Streptococcus pneumoniae (ATCC 6301) ([3]; Streptococcus pneumoniae (ATCC 6301)): <0.5 µg/mL
- MIC Streptococcus pneumoniae (GC 1894) ([3]; Streptococcus pneumoniae (GC 1894)): <0.5 µg/mL
- MIC Streptococcus pneumoniae (GC 4565) ([3]; Streptococcus pneumoniae (GC 4565)): <0.5 µg/mL
- MIC Streptococcus pyogenes (GC 4563) ([3]; Streptococcus pyogenes (GC 4563)): <0.5 µg/mL
- MIC Streptococcus pneumoniae (ATCC 6301) ([3]; strain ATCC 6301): <0.5 µg/mL
- MIC Streptococcus pneumoniae (GC 1894) ([3]; strain GC 1894): <0.5 µg/mL
- MIC Streptococcus pyogenes (GC 4563) ([3]; strain GC 4563): <0.5 µg/mL
- MIC Streptococcus agalactiae (GC 4564) ([3]; strain GC 4564): <0.5 µg/mL
- MIC Streptococcus pneumoniae (GC 4565) ([3]; strain GC 4565): <0.5 µg/mL
- MIC Enterococcus avium (GC 4558) ([4]; Enterococcus avium (GC 4558)): 1 µg/mL (≈ 0.702 µM)
- MIC Enterococcus faecalis (ATCC 29212) ([4]; Enterococcus faecalis (ATCC 29212)): <0.5 µg/mL
- MIC Enterococcus faecalis (GC 2242) ([4]; Enterococcus faecalis (GC 2242)): <1 µg/mL
- MIC Enterococcus faecalis (GC 2691) ([4]; Enterococcus faecalis (GC 2691)): 1 µg/mL (≈ 0.702 µM)
- MIC Enterococcus faecalis (GC 3059) ([4]; Enterococcus faecalis (GC 3059)): 1 µg/mL (≈ 0.702 µM)
- MIC Enterococcus faecalis (GC 4552) ([4]; Enterococcus faecalis (GC 4552)): 1 µg/mL (≈ 0.702 µM)
- MIC Enterococcus faecalis (GC 4553) ([4]; Enterococcus faecalis (GC 4553)): 1 µg/mL (≈ 0.702 µM)
- MIC Enterococcus faecalis (GC 4554) ([4]; Enterococcus faecalis (GC 4554)): 1 µg/mL (≈ 0.702 µM)
- MIC Enterococcus faecalis (GC 6189) ([4]; Enterococcus faecalis (GC 6189)): 1 µg/mL (≈ 0.702 µM)
- MIC Enterococcus faecium (GC 2243) ([4]; Enterococcus faecium (GC 2243)): 1 µg/mL (≈ 0.702 µM)
- MIC Enterococcus faecium (GC 4556) ([4]; Enterococcus faecium (GC 4556)): 1 µg/mL (≈ 0.702 µM)
- MIC Enterococcus faecium (GC 4557) ([4]; Enterococcus faecium (GC 4557)): 1 µg/mL (≈ 0.702 µM)
- MIC Enterococcus faecalis (ATCC 29212) ([4]; strain ATCC 29212): <0.5 µg/mL
- MIC Enterococcus faecalis (GC 2242) ([4]; strain GC 2242): <1 µg/mL
- MIC Enterococcus faecium (GC 2243) ([4]; strain GC 2243): 1 µg/mL (≈ 0.702 µM)
- MIC Enterococcus faecalis (GC 2691) ([4]; strain GC 2691): 1 µg/mL (≈ 0.702 µM)
- MIC Enterococcus faecalis (GC 3059) ([4]; strain GC 3059): 1 µg/mL (≈ 0.702 µM)
- MIC Enterococcus faecalis (GC 4552) ([4]; strain GC 4552): 1 µg/mL (≈ 0.702 µM)
- MIC Enterococcus faecalis (GC 4553) ([4]; strain GC 4553): 1 µg/mL (≈ 0.702 µM)
- MIC Enterococcus faecalis (GC 4554) ([4]; strain GC 4554): 1 µg/mL (≈ 0.702 µM)
- MIC Enterococcus faecium (GC 4556) ([4]; strain GC 4556): 1 µg/mL (≈ 0.702 µM)
- MIC Enterococcus faecium (GC 4557) ([4]; strain GC 4557): 1 µg/mL (≈ 0.702 µM)
- MIC Enterococcus avium (GC 4558) ([4]; strain GC 4558): 1 µg/mL (≈ 0.702 µM)
- MIC Enterococcus faecalis (GC 6189) ([4]; strain GC 6189): 1 µg/mL (≈ 0.702 µM)
